From PMC7717600, “Novel [(N-alkyl-3-indolylmethylene)hydrazono]oxindoles arrest cell cycle and induce cell apoptosis by inhibiting CDK2 and Bcl-2: synthesis, biological evaluation and in silico studies” (Journal of Enzyme Inhibition and Medicinal Chemistry, 2020)
Like-named read-outs stand apart in the source and are kept apart here.

Experiments:
A-549 = assay: SRB anti-proliferative assay; assay type: cell-based; conditions: Homo sapiens, A549; A-549, SRB, mean ± SE of 3
Procedure: Staurosporine, a clinically used antitumor drug, was co-assayed as a reference agent for the experiment.
(§1) Examination of the cytotoxic activity for the target conjugates was carried out in accordance with the SRB colorimetric assay protocol, as described previously.
(§2) In vitro anti-proliferative activity assay
(§3) Cells at a concentration of 0.50 x
(§4) Sulfo-Rhodamine-B stain (SRB) assay.
(§5) cell to the wall of the plate.
(§6) wells were prepared for each individual dose).
(§7) Unbound dye was removed by four

HCT-116 = assay: SRB anti-proliferative assay; assay type: cell-based; conditions: Homo sapiens; HCT-116, SRB, mean ± SE of 3
Procedure: (§8) All the newly prepared target conjugates (7, 8a–c, 9 and 10a–e) were investigated for the prospective growth inhibitory actions against three different cancer cell lines viz.; A-549, MDA-MB-231, and HCT-116, using the sulforhodamine B colorimetric (SRB) assay. Staurosporine, a clinically used antitumor drug, was co-assayed as a reference agent for the experiment.
as §1, §2, §3, §4, §5, §6, §7

MDA-MB-231 = assay: SRB anti-proliferative assay; assay type: cell-based; conditions: Homo sapiens; MDA-MB-231, SRB, mean ± SE of 3
Procedure: as §8, §1, §2, §3, §4, §5, §6, §7

[1] = system: breast T-47D cancer cells; assay: Annexin V-FITC/PI apoptosis assay; assay type: cell-based, human
Description: In an attempt to further investigate whether the antiproliferative activity for conjugate 8a is harmonious with the apoptosis induction within T-47D cells pointed out by the increased cell population in sub-G1 phase in 8a-treated T-47D cells (Figure 3), Annexin V-FITC/PI dual staining analysis was used for the apoptosis assay (Figure 4).
Phosphatidylserine externalisation effect of conjugate 8a over breast T-47D cancer cell line was investigated using Annexin-V-FITC Apoptosis Detection Kit by flow cytometry, as described earlier.
4.2.4. Cell Cycle Analysis
Subsequently, the treated cells
Annexin V-FITC Apoptosis Assay
period of 30 min at 4 °C.
Technologies, Darmstadt, Germany).
μl PEG20.000). […] H3PO4. Aliquots were […]

CDK2 = CDK2 (Homo sapiens, UniProt P24941); assay: CDK2 inhibition assay; assay type: biochemical; conditions: CDK2, mean ± SE of three
Procedure: and of the test compound in a final volume of 10 µL, all in a reaction buffer (60 mM HEPES-NaOH, pH 7.5, 3 mM MgCl2, 3 mM MnCl2, 3 μM Na-orthovanadate, 1.2 mM DTT, 2.5 μg / 50 μl PEG20.000). The reactions were stopped by adding 5 µL of 3 % aq. H3PO4. Aliquots were spotted onto P-81 phosphocellulose (Whatman), washed 3× with 0.5 % aq. H3PO4 and finally air-dried. Kinase inhibition was quantified using a FLA-7000 digital image analyzer (Fujifilm).

HOP-92 [2] = conditions: for TGI: HOP-92; for GI %: HOP-92, 10 μM
HCT-15 = conditions: for TGI: HCT-15; for GI %: HCT-15, 10 μM
CCRF-CEM = assay: cells; conditions: Homo sapiens
HT29 [3] = conditions: for TGI: HT29; for GI %: HT29, 10 μM
KM12 = conditions: for TGI: KM12; for GI %: KM12, 10 μM
SF-539 [4] = conditions: for TGI: SF-539; for GI %: SF-539, 10 μM
SK-MEL-5 = conditions: for TGI: SK-MEL-5; for GI %: SK-MEL-5, 10 μM
UACC-257 [5] = conditions: for TGI: UACC-257; for GI %: UACC-257, 10 μM
A498 = conditions: for TGI: A498; for GI %: A498, 10 μM
MOLT-4 = assay: cells; conditions: Homo sapiens
UO-31 = conditions: for GI %: UO-31, 10 μM
MDA-MB-231/ATCC = conditions: for GI %: MDA-MB-231, 10 μM
T-47D = conditions: for GI %: 10 μM
HOP-92 [6] = assay: cells; conditions: Homo sapiens
NCI-H522 = assay: cells; conditions: Homo sapiens
HT29 [7] = assay: cells; conditions: Homo sapiens
SW-620 = assay: cells; conditions: Homo sapiens
SF-539 [8] = assay: cells; conditions: Homo sapiens
SNB-19 = assay: cells; conditions: Homo sapiens
U251 = assay: cells; conditions: Homo sapiens
MALME-3M = assay: cells; conditions: Homo sapiens
SK-MEL-2 = assay: cells; conditions: Homo sapiens
SK-MEL-28 = assay: cells; conditions: Homo sapiens
UACC-257 [9] = assay: cells; conditions: Homo sapiens
IGROV1 = assay: cells; conditions: Homo sapiens
NCI/ADR-RES = assay: cells; conditions: Homo sapiens
SN12C = assay: cells; conditions: Homo sapiens
TK-10 = assay: cells; conditions: Homo sapiens
DU-145 = assay: cells; conditions: Homo sapiens

Molecule `CCCn1cc(C=NN=C2C(=O)Nc3ccc(C)cc32)c2ccccc21` [Compound 8a] has an IC50 (A-549) of 7.3 ± 0.42 µM, an IC50 (HCT-116) of 2.6 ± 0.17 µM and an IC50 (MDA-MB-231) of 4.7 ± 0.28 µM. For the same molecule, the “apoptotic cells, early apoptotic phase” value ([1]; control 0.26%) was 4.82%, the “apoptotic cells, late apoptotic phase” value ([1]; control 0.47%) was 14.62% and the “increase in total apoptosis” value ([1]; vs untreated control) was “about 26 fold”. For the same molecule, the IC50 (CDK2) was 0.85 ± 0.03 µM, the TGI (HOP-92 [2]) was 6.57 µM and the GI % (HOP-92 [2]) was 63%. For the same molecule, the “Growth Percent” value (HOP-92 [2]; HOP-92, 1.00E-5 Molar) was 37.42%, the TGI (HOP-92 [2]; listed as D - 795311 / 1) was 6.57E-6 Molar and the TGI (HCT-15) was 42.2 µM. The GI % (HCT-15) was 77%, the “Growth Percent” value (HCT-15; HCT-15, 1.00E-5 Molar) was 23.04% and the TGI (HCT-15; listed as D - 795311 / 1) was 4.22E-5 Molar. The GI50 (CCRF-CEM) was 1.94 µM, the CC50 (CCRF-CEM; read-out: LC50) was greater than 100 µM and the TGI (HT29 [3]) was greater than 100 µM. The GI % (HT29 [3]) was 83%, the “Growth Percent” value (HT29 [3]; HT29, 1.00E-5 Molar) was 17.08% and the TGI (HT29 [3]; listed as D - 795311 / 1) was greater than 1.00E-4 Molar. The TGI (KM12) was 19.7 µM, the GI % (KM12) was 40% and the “Growth Percent” value (KM12; KM12, 1.00E-5 Molar) was 59.92%. For the same molecule, the TGI (KM12; listed as D - 795311 / 1) was 1.97E-5 Molar, the TGI (SF-539 [4]) was 17.1 µM and the GI % (SF-539 [4]) was 66%. The “Growth Percent” value (SF-539 [4]; SF-539, 1.00E-5 Molar) was 33.94%, the TGI (SF-539 [4]; listed as D - 795311 / 1) was 1.71E-5 Molar and the TGI (SK-MEL-5) was 13.50 µM. For the same molecule, the GI % (SK-MEL-5) was 51%, the “Growth Percent” value (SK-MEL-5; SK-MEL-5, 1.00E-5 Molar) was 49.07% and the TGI (SK-MEL-5; listed as D - 795311 / 1) was 1.35E-5 Molar. The CC50 (SK-MEL-5; human, 48 h) was 39 µM, the TGI (UACC-257 [5]) was 66.60 µM and the GI % (UACC-257 [5]) was 41%. The “Growth Percent” value (UACC-257 [5]; UACC-257, 1.00E-5 Molar) was 58.80%, the TGI (UACC-257 [5]; listed as D - 795311 / 1) was 6.66E-5 Molar and the TGI (A498) was 7.50 µM. The GI % (A498) was 43%, the “Growth Percent” value (A498; A498, 1.00E-5 Molar) was 57.21% and the TGI (A498; listed as D - 795311 / 1) was 7.50E-6 Molar. The GI50 (MOLT-4; MOLT-4, MOLT-4) was 0.682 µM, the CC50 (MOLT-4; MOLT-4, read-out: LC50) was greater than 100 µM and the GI % (UO-31) was 40%. The “Growth Percent” value (UO-31; UO-31, 1.00E-5 Molar) was 60.00%, the TGI (UO-31; UO-31, listed as D - 795311 / 1) was 6.18E-5 Molar and the GI % (MDA-MB-231/ATCC) was 66%. For the same molecule, the TGI (MDA-MB-231/ATCC; MDA-MB-231/ATCC) was 7.40 µM, the “Growth Percent” value (MDA-MB-231/ATCC; MDA-MB-231/ATCC, 1.00E-5 Molar) was 34.35% and the TGI (MDA-MB-231/ATCC; MDA-MB-231/ATCC, listed as D - 795311 / 1) was 7.40E-6 Molar. The GI50 (T-47D) was 0.41 µM, the TGI (T-47D) was 18.40 µM and the GI % (T-47D) was 61%. For the same molecule, the “Growth Percent” value (T-47D; 1.00E-5 Molar) was 39.59%, the TGI (T-47D; listed as D - 795311 / 1) was 1.84E-5 Molar and the GI50 (HOP-92 [6]; HOP-92) was 1.87 µM. It also gave a CC50 (HOP-92 [6]; HOP-92, read-out: LC50) greater than 100 µM, a GI50 (NCI-H522; NCI-H522) of 1.81 µM and a CC50 (NCI-H522; NCI-H522, read-out: LC50) greater than 100 µM. It also gave a GI50 (HT29 [7]; HT-29) of 3.4 µM, a CC50 (HT29 [7]; HT-29, read-out: LC50) greater than 100 µM and a GI50 (SW-620; SW-620) of 2.97 µM. It also gave a CC50 (SW-620; SW-620, read-out: LC50) greater than 100 µM, a GI50 (SF-539 [8]; SF-539) of 2.69 µM and a CC50 (SF-539 [8]; SF-539, read-out: LC50) greater than 100 µM. The GI50 (SNB-19; SNB-19) was 4.24 µM, the CC50 (SNB-19; SNB-19, read-out: LC50) was greater than 100 µM and the GI50 (U251; U-251) was 3.51 µM. For the same molecule, the CC50 (U251; U-251, read-out: LC50) was greater than 100 µM, the GI50 (MALME-3M) was 1.88 µM and the CC50 (MALME-3M; read-out: LC50) was greater than 100 µM. The GI50 (SK-MEL-2; SK-MEL-2) was 2.42 µM, the CC50 (SK-MEL-2; SK-MEL-2, read-out: LC50) was greater than 100 µM and the GI50 (SK-MEL-28; SK-MEL-28) was 4.7 µM. The CC50 (SK-MEL-28; SK-MEL-28, read-out: LC50) was greater than 100 µM, the GI50 (UACC-257 [9]; UACC-257) was 12.3 µM and the CC50 (UACC-257 [9]; UACC-257, read-out: LC50) was greater than 100 µM. It also gave a GI50 (IGROV1; IGROV-1) of 3.38 µM, a CC50 (IGROV1; IGROV-1, read-out: LC50) greater than 100 µM and a GI50 (NCI/ADR-RES) of 6.39 µM. It also gave a CC50 (NCI/ADR-RES; read-out: LC50) greater than 100 µM, a GI50 (SN12C) of 3.2 µM and a CC50 (SN12C; read-out: LC50) greater than 100 µM. It also gave a GI50 (TK-10; TK-10) of 11.1 µM, a CC50 (TK-10; TK-10, read-out: LC50) greater than 100 µM and a GI50 (DU-145; DU-145) of 3.88 µM. It also gave a CC50 (DU-145; DU-145, read-out: LC50) greater than 100 µM.
`C=CCn1cc(C=NN=C2C(=O)Nc3ccc(Cl)cc32)c2ccccc21` [Compound 10d] was tested, and the IC50 (A-549) was 53.1 ± 4.13 µM, the IC50 (HCT-116) was 28.5 ± 1.59 µM and the IC50 (MDA-MB-231) was 42.9 ± 2.51 µM. For the same molecule, the GI % (HOP-92 [2]) was “– (Only GI % higher than 10% are shown)”, the GI % (HCT-15) was 10% and the GI % (HT29 [3]) was “– (Only GI % higher than 10% are shown)”. The GI % (KM12) was “– (Only GI % higher than 10% are shown)”, the GI % (SF-539 [4]) was “– (Only GI % higher than 10% are shown)” and the GI % (SK-MEL-5) was “– (Only GI % higher than 10% are shown)”. For the same molecule, the GI % (UACC-257 [5]) was “– (Only GI % higher than 10% are shown)”, the GI % (A498) was “– (Only GI % higher than 10% are shown)” and the GI % (UO-31) was 23%. The GI % (MDA-MB-231/ATCC) was “– (Only GI % higher than 10% are shown)” and the GI % (T-47D) was 30%.
